In patent US11672868B2, “Bicyclic peptide ligands specific for MT1-MMP” (priority 2014, dated 2023):
Read-outs that look alike come from different tables or passages of the source. Marks after values point to notes of the source that are not given here. Numbered stars: 1 amine (or outer) side, 2 acyl side, 3 side chain; on linkers, the order of the positions; unused ones are H or OH. Bridge positions count the residues as written; N and C are the ends. Square brackets hold non-standard residues; d marks the D form. Peptide text beside a SMILES is read from it. I, II: the chains in the order shown. * marks the point of attachment. X3 = COc1cc2cc(c1Cl)N(C)C(=O)C[C@H](OC(=O)[C@H](C)N(C)C(=O)CCSSCCCC(=O)*)[C@]1(C)O[C@H]1[C@H](C)[C@@H]1C[C@@](O)(NC(=O)O1)[C@H](OC)/C=C/C=C(\C)C2; Dolaproine = CO[C@@H]([C@@H]1CCCN1)[C@@H](C)C(=O)O; Dil = CC[C@H](C)[C@H](NC)[C@@H](CC(=O)O)OC; Phe(4-Br) = N[C@@H](Cc1ccc(Br)cc1)C(=O)O; 1Nal = N[C@@H](Cc1cccc2ccccc12)C(=O)O; TBMB = c1c(C[*:1])cc(C[*:3])cc1C[*:2]; PABC = O=C(OCc1ccc(N[*:1])cc1)[*:2]; Glutaryl = O=C(CCCC(=O)[*:2])[*:1]; X4 = C[C@@H](N*)[C@@H](O)c1ccccc1; Cit = NC(=O)NCCC[C@H](N)C(=O)O; Tle = CC(C)(C)[C@H](N)C(=O)O; NMeV = CN[C@H](C(=O)O)C(C)C; Sar = CNCC(=O)O

Key:
[1] = Mouse pharmacokinetics, single intravenous dose; type: in vivo; conditions: male CD1 mice, single intravenous 5.925 mg/kg, mean
Experimental: Mouse pharmacokinetics were acquired using bicyclic peptide 17-69-04-N004, which was dosed to one group of 12 male CD1 mice as a single intravenous, 5.925 mg/kg doses as a 5 mL/kg bolus of a 1.19 mg/mL solution. […] Blood samples were taken from two animals per time-point, via cardiac puncture under terminal anaesthesia, at 0.08, 0.5, 1, 2 and 4 hours post-dose, and transferred to EDTA tubes for plasma generation. Plasma samples were immediately frozen at −20 C. For analysis, samples were thawed rapidly and 50 μL aliquots were treated with 3 volumes of extraction solvent (2:9:9 mixture of 10 mM ammonium bicarbonate, pH 8, acetonitrile and methanol, containing an analytical internal standard). Precipitated proteins were removed by centrifugation and the supernatant was analysed by LC-MS/MS. Quantification of the samples was by reference to a calibration line prepared in control mouse plasma. Pharmacokinetic parameters were determined by non-compartmental analysis using the software package PK Solutions 2.0 from Summit Research Services.
Cmax: Maximum measured concentration;
Tmax: Time at which maximum concentration was measured;
AUC 0-t: Area under the plasma drug concentration/time curve from 0 minutes to last quantifiable data point; and
AUC 0-∞: Area under the plasma drug concentration/time curve from 0 minutes extrapolated beyond the final data point based on the terminal half-life.

[2] = Plasma stability, quantitative LC-MS (Method #2); type: in vitro ADME, mouse; conditions: ex vivo mouse plasma at 37° C., Method #2 (FIG. 1, FIG. 3A); read-out: half-life of the peptide in mouse plasma (converted)
Experimental: (§1) To obtain plasma stability of bicyclic peptides quantitatively, peptide stock solutions (200 μM in DMSO) were mixed with plasma (human or mouse), such that final concentrations were 10 μM. 40 μL samples were taken periodically up to 8 hrs and frozen at −80° C. Prior to LC-MS analysis, samples were defrosted, and mixed with 3 volumes (here, 120 μL) of 1:1 acetonitrile/MeOH water. The milky suspensions were centrifuged for 30 min at 13000 rpm, and peptide-containing supernatants were quantitated for doubly/triply charged species and MS/MS fragments thereof using a Waters Xevo TQ-D instrument, while using a plasma extracted standard curve of the same peptides as a reference. The half-life of degradation in plasma was used to assess the comparative stability of the molecules.

[3] = Plasma stability, quantitative LC-MS (Method #2); type: in vitro ADME, human; conditions: human, human plasma, 37° C.; sentence prints mouse plasma; read-out: half-life of the peptide in plasma (FIG. 3B, human plasma stability) (converted)
Experimental: as §1, with “[…] […]” for “To obtain plasma stability of bicyclic peptides quantitatively, peptide stock solutions (200 μM in DMSO) were mixed with plasma (human or mouse), such that final concentrations were 10 μM. 40 μL samples were taken periodically up to 8 hrs and frozen at −80° C.”

[4] = tested on: HT-1080 xenograft tumours; assay: Efficacy in HT-1080 xenograft mice; type: in vivo, mouse; conditions: HT1080 xenograft
Experimental: Balb/c nude mice bearing subcutaneous HT-1080 xenograft tumours were treated with BDCs or vehicle (PBS). BDCs were dosed 3 times weekly for 2 weeks, dosing initiated when tumours measured approx. 150-200 mm^3. Mice were monitored, and measurements of tumour volume and body weight recorded 3 times a week.

[5] = tested on: human lung squamous cell carcinoma line EBC-1; assay: Efficacy in EBC-1 xenograft mice; type: in vivo, mouse; conditions: mouse bearing EBC-1 tumours; ± 95% confidence limit
Experimental: In vivo efficacy of BT17BDC-17, BT17BDC-18, BT17BDC-19 and BT17BDC-20 All BDCs containing the stabilised bicycle core sequence were tested for their efficacies in in vivo mouse xenograft models, using the human lung squamous cell carcinoma line EBC-1.
The area under the curve (AUC) of tumour volume over time and BDC was taken and plotted against the corresponding dose group (FIG. 13).

Row | SMILES | half-life at 10 μM [2] | half-life at 10 μM [3] | weight of the animals during treatment [4] | also measured
1 | CC[C@H](C)[C@@H]1NC(=O)[C@H](CC(=O)O)NC(=O)[C@H](Cc2ccc(O)cc2)NC(=O)[C@H](Cc2ccccc2)NC(=O)[C@H](CC(=O)O)NC(=O)[C@H](CCC(=O)O)NC(=O)[C@@H]2CSCc3cc(cc(c3)CSC[C@H](NC(C)=O)C(=O)N[C@@H](Cc3ccc(O)cc3)C(=O)N[C@@H](CC(N)=O)C(=O)N[C@@H](CCC(=O)O)C(=O)N[C@@H](Cc3ccccc3)C(=O)NCC(=O)N2)CSC[C@@H](C(N)=O)NC1=O [17-69-07-N004, Ac-(17-69-07) (wildtype)] | – | – | – | Clearance based on AUC 0-∞ [1]: 20.7 mL/min/kg; Volume of Distribution based on AUC 0-∞ [1]: 0.4 L/kg
2 | C[C@H](NC(=O)CN(C)C(=O)CN(C)C(=O)CN(C)C(=O)CN(C)C(=O)CN(C)C(=O)CN(C)C(=O)CN(C)C(=O)CN(C)C(=O)CN(C)C(=O)CN(C)C(=O)CN)C(=O)N[C@H]1CSCc2cc3cc(c2)CSC[C@H](NC(=O)[C@@H](C)NC(=O)[C@H](Cc2cccc4ccccc24)NC(=O)[C@H](CCC(=O)O)NC(=O)[C@H](CC(N)=O)NC(=O)[C@@H](C)NC1=O)C(=O)N[C@@H](CCC(=O)O)C(=O)N[C@@H](CC(=O)O)C(=O)N[C@@H](Cc1ccccc1)C(=O)N[C@@H](Cc1ccc(O)cc1)C(=O)N[C@@H](CC(=O)O)C(=O)N[C@@H](C(C)(C)C)C(=O)N[C@H](C(N)=O)CSC3 [17-69-07-N231, G-Sar10-A-(17-69-07) D-Ala1 1Nal4 D-Ala5 tBuGly11] (H-G[Sar][Sar][Sar][Sar][Sar][Sar][Sar][Sar][Sar][Sar]AC[dA]NE[1Nal][dA]CEDFYD[Tle]C-NH2; linker 13-19-26 via TBMB; C-terminus assumed) | > 20 h | > 20 h | – | –
3 | C[C@H](NC(=O)CN(C)C(=O)CN(C)C(=O)CN(C)C(=O)CN(C)C(=O)CN(C)C(=O)CN(C)C(=O)CN(C)C(=O)CN(C)C(=O)CN(C)C(=O)CN(C)C(=O)CN)C(=O)N[C@H]1CSCc2cc3cc(c2)CSC[C@H](NC(=O)[C@@H](C)NC(=O)[C@H](Cc2cccc4ccccc24)NC(=O)[C@H](CCC(=O)O)NC(=O)[C@H](CC(N)=O)NC(=O)[C@@H](C)NC1=O)C(=O)N[C@@H](CCC(=O)O)C(=O)N[C@@H](CC(=O)O)C(=O)N[C@@H](Cc1ccccc1)C(=O)N[C@@H](Cc1ccc(Br)cc1)C(=O)N[C@@H](CC(=O)O)C(=O)N[C@@H](C(C)(C)C)C(=O)N[C@H](C(N)=O)CSC3 [17-69-07-N244, G-Sar10-A-(17-69-07) D-Ala1 1Nal4 D-Ala5 4BrPhe9 tBuGly11] (H-G[Sar][Sar][Sar][Sar][Sar][Sar][Sar][Sar][Sar][Sar]AC[dA]NE[1Nal][dA]CEDF[Phe(4-Br)]D[Tle]C-NH2; linker 13-19-26 via TBMB; C-terminus assumed) | > 20 h | > 20 h | – | –
4 | CC[C@H](C)[C@@H]([C@@H](CC(=O)N1CCC[C@H]1[C@H](OC)[C@@H](C)C(=O)N[C@H](C)[C@@H](O)c1ccccc1)OC)N(C)C(=O)[C@@H](NC(=O)[C@H](C(C)C)N(C)C(=O)OCc1ccc(NC(=O)[C@H](CCCNC(N)=O)NC(=O)[C@@H](NC(=O)CCCC(=O)NCC(=O)N(C)CC(=O)N(C)CC(=O)N(C)CC(=O)N(C)CC(=O)N(C)CC(=O)N(C)CC(=O)N(C)CC(=O)N(C)CC(=O)N(C)CC(=O)N(C)CC(=O)N[C@@H](C)C(=O)N[C@H]2CSCc3cc4cc(c3)CSC[C@H](NC(=O)CNC(=O)[C@H](Cc3ccccc3)NC(=O)[C@H](CCC(=O)O)NC(=O)[C@H](CC(N)=O)NC(=O)[C@H](Cc3ccc(O)cc3)NC2=O)C(=O)N[C@@H](CCC(=O)O)C(=O)N[C@@H](CC(=O)O)C(=O)N[C@@H](Cc2ccccc2)C(=O)N[C@@H](Cc2ccc(O)cc2)C(=O)N[C@@H](CC(=O)O)C(=O)N[C@@H]([C@@H](C)CC)C(=O)N[C@H](C(N)=O)CSC4)C(C)C)cc1)C(C)C [BT17BDC-1] (I: G[Sar][Sar][Sar][Sar][Sar][Sar][Sar][Sar][Sar][Sar]ACYNEFGCEDFYDIC-NH2 / II: V[Cit][PABC][NMeV]V[Dil][Dolaproine]-X4; linker I:13-I:19-I:26 via TBMB; linker I:N-II:N via Glutaryl) | – | – | largely stable | –
5 | CC[C@H](C)[C@@H]1NC(=O)[C@H](CC(=O)O)NC(=O)[C@H](Cc2ccc(O)cc2)NC(=O)[C@H](Cc2ccccc2)NC(=O)[C@H](CC(=O)O)NC(=O)[C@H](CCC(=O)O)NC(=O)[C@@H]2CSCc3cc(cc(c3)CSC[C@H](NC(=O)[C@H](C)NC(=O)CN(C)C(=O)CN(C)C(=O)CN(C)C(=O)CN(C)C(=O)CN(C)C(=O)CN(C)C(=O)CN(C)C(=O)CN(C)C(=O)CN(C)C(=O)CN(C)C(=O)CNC(=O)CCCSSCCC(=O)N(C)[C@@H](C)C(=O)O[C@H]3CC(=O)N(C)c4cc(cc(OC)c4Cl)C/C(C)=C/C=C/[C@@H](OC)[C@@]4(O)C[C@H](OC(=O)N4)[C@@H](C)[C@@H]4O[C@@]34C)C(=O)N[C@@H](Cc3ccc(O)cc3)C(=O)N[C@@H](CC(N)=O)C(=O)N[C@@H](CCC(=O)O)C(=O)N[C@@H](Cc3ccccc3)C(=O)NCC(=O)N2)CSC[C@@H](C(N)=O)NC1=O [BT17BDC-9] (X3-G[Sar][Sar][Sar][Sar][Sar][Sar][Sar][Sar][Sar][Sar]ACYNEFGCEDFYDIC-NH2; linker 13-19-26 via TBMB) | – | – | largely stable | reduction in tumour volume compared to vehicle control ([4]; after 9 days post injection): significant reduction in tumour volume; ED50, effective dose to achieve 50% tumour AUC reduction [5]: 2.1 ± 1.1^b mg/kg
